Measured values published in PubChem BioAssay AID2060333 (Molecular Pharmacology Branch, DTP, NCI, 2025).
Several values for one entry are separate records, joined by “and”; a condition that tells them apart may be missing. Identical values can stand only once.

Tested on: 845751-090-R-J2-PDC tumor spheroid viability
Test: Anticancer human tumor 845751-090-R-J2-PDC patient-derived head and neck squamous carcinoma cell line growth inhibition [IpAb]
Conditions: spheroids with HUVEC and MSC; for viability, T/C: stronger effect = lower value
Method in brief: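 Spheroids of 60% malignant cells, 25% HUVEC and 15% MSC were exposed to targeted agents combined with ipatasertib or abemaciclib. Doses started at or near clinical Cmax (10 microM when unknown) and fell in half-log steps.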

[1] = curve of first compound, second compound 0.01 µM
[2] = curve of first compound, second compound 0.0316 µM
[3] = curve of first compound, second compound 0.1 µM
[4] = curve of first compound, second compound 0.316 µM
[5] = curve of first compound, second compound 1 µM
[6] = second compound 0.01 µM, first compound 0.0316 µM
[7] = second compound 0.01 µM, first compound 0.1 µM
[8] = second compound 0.01 µM, first compound 0.316 µM
[9] = second compound 0.01 µM, first compound 1 µM
[10] = second compound 0.01 µM, first compound 3.16 µM
[11] = second compound 0.01 µM, first compound 10 µM
[12] = second compound 0.0316 µM, first compound 0.0316 µM
[13] = second compound 0.0316 µM, first compound 0.1 µM
[14] = second compound 0.0316 µM, first compound 0.316 µM
[15] = second compound 0.0316 µM, first compound 1 µM
[16] = second compound 0.0316 µM, first compound 3.16 µM
[17] = second compound 0.0316 µM, first compound 10 µM
[18] = second compound 0.1 µM, first compound 0.0316 µM
[19] = second compound 0.1 µM, first compound 0.1 µM
[20] = second compound 0.1 µM, first compound 0.316 µM
[21] = second compound 0.1 µM, first compound 1 µM
[22] = second compound 0.1 µM, first compound 3.16 µM
[23] = second compound 0.1 µM, first compound 10 µM
[24] = second compound 0.316 µM, first compound 0.0316 µM
[25] = second compound 0.316 µM, first compound 0.1 µM
[26] = second compound 0.316 µM, first compound 0.316 µM
[27] = second compound 0.316 µM, first compound 1 µM
[28] = second compound 0.316 µM, first compound 3.16 µM
[29] = second compound 0.316 µM, first compound 10 µM
[30] = second compound 1 µM, first compound 0.0316 µM
[31] = second compound 1 µM, first compound 0.1 µM
[32] = second compound 1 µM, first compound 0.316 µM
[33] = second compound 1 µM, first compound 1 µM
[34] = second compound 1 µM, first compound 3.16 µM
[35] = second compound 1 µM, first compound 10 µM
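Note: spheroids exposed to compounds for 7 days before readout.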
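Throughout, for viability, T/C: CTG3D luminescence normalised so that 100% = DMSO vehicle control.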

## CC(C)(C)c1cnc(CSc2cnc(NC(=O)C3CCNCC3)s2)o1 + CCN1CCN(Cc2ccc(Nc3ncc(F)c(-c4cc(F)c5nc(C)n(C(C)C)c5c4)n3)nc2)CC1
[1]
  IC50: 97.3 nM
[2]
  IC50: 71.4 nM
[3]
  IC50: 51.2 nM
[4]
  IC50: 36.5 nM
[5]
  IC50: 38.4 nM
Second compound 0.01 µM, first compound 0.00949 µM
  viability, T/C: 112%
Second compound 0.01 µM, first compound 0.03 µM
  viability, T/C: 91.9%
Second compound 0.01 µM, first compound 0.0949 µM
  viability, T/C: 55%
Second compound 0.01 µM, first compound 0.3 µM
  viability, T/C: 1.28%
Second compound 0.01 µM, first compound 0.949 µM
  viability, T/C: 1.21%
Second compound 0.01 µM, first compound 3 µM
  viability, T/C: 1.79%
Second compound 0.0316 µM, first compound 0.00949 µM
  viability, T/C: 92.8%
Second compound 0.0316 µM, first compound 0.03 µM
  viability, T/C: 102%
Second compound 0.0316 µM, first compound 0.0949 µM
  viability, T/C: 34.5%
Second compound 0.0316 µM, first compound 0.3 µM
  viability, T/C: 1.59%
Second compound 0.0316 µM, first compound 0.949 µM
  viability, T/C: 0.68%
Second compound 0.0316 µM, first compound 3 µM
  viability, T/C: 0.88%
Second compound 0.1 µM, first compound 0.00949 µM
  viability, T/C: 90.5%
Second compound 0.1 µM, first compound 0.03 µM
  viability, T/C: 69.6%
Second compound 0.1 µM, first compound 0.0949 µM
  viability, T/C: 27.7%
Second compound 0.1 µM, first compound 0.3 µM
  viability, T/C: 1.77%
Second compound 0.1 µM, first compound 0.949 µM
  viability, T/C: 0.43%
Second compound 0.1 µM, first compound 3 µM
  viability, T/C: 0.69%
Second compound 0.316 µM, first compound 0.00949 µM
  viability, T/C: 76%
Second compound 0.316 µM, first compound 0.03 µM
  viability, T/C: 57.9%
Second compound 0.316 µM, first compound 0.0949 µM
  viability, T/C: 11.5%
Second compound 0.316 µM, first compound 0.3 µM
  viability, T/C: 0.79%
Second compound 0.316 µM, first compound 0.949 µM
  viability, T/C: 0.67%
Second compound 0.316 µM, first compound 3 µM
  viability, T/C: 0.6%
Second compound 1 µM, first compound 0.00949 µM
  viability, T/C: 62%
Second compound 1 µM, first compound 0.03 µM
  viability, T/C: 63.1%
Second compound 1 µM, first compound 0.0949 µM
  viability, T/C: 3.89%
Second compound 1 µM, first compound 0.3 µM
  viability, T/C: 2.43%
Second compound 1 µM, first compound 0.949 µM
  viability, T/C: 1.4%
Second compound 1 µM, first compound 3 µM
  viability, T/C: 0.76%

## C=CCn1c(=O)c2cnc(Nc3ccc(N4CCN(C)CC4)cc3)nc2n1-c1cccc(C(C)(C)O)n1 + CCN1CCN(Cc2ccc(Nc3ncc(F)c(-c4cc(F)c5nc(C)n(C(C)C)c5c4)n3)nc2)CC1
[1]
  IC50: > 10000 nM
[2]
  IC50: 4170 nM
[3]
  IC50: 2000 nM
[4]
  IC50: 8970 nM
[5]
  IC50: > 10000 nM
[6]
  viability, T/C: 104%
[7]
  viability, T/C: 68.3%
[8]
  viability, T/C: 68.3%
[9]
  viability, T/C: 57.4%
[10]
  viability, T/C: 50.8%
[11]
  viability, T/C: 48.9%
[12]
  viability, T/C: 66.4%
[13]
  viability, T/C: 71.4%
[14]
  viability, T/C: 62.2%
[15]
  viability, T/C: 60.8%
[16]
  viability, T/C: 53.1%
[17]
  viability, T/C: 40.8%
[18]
  viability, T/C: 66.8%
[19]
  viability, T/C: 64.8%
[20]
  viability, T/C: 60.8%
[21]
  viability, T/C: 47.7%
[22]
  viability, T/C: 50.5%
[23]
  viability, T/C: 43.2%
[24]
  viability, T/C: 59%
[25]
  viability, T/C: 68.7%
[26]
  viability, T/C: 69.2%
[27]
  viability, T/C: 60.3%
[28]
  viability, T/C: 59.8%
[29]
  viability, T/C: 49.1%
[30]
  viability, T/C: 88.9%
[31]
  viability, T/C: 97.6%
[32]
  viability, T/C: 83.9%
[33]
  viability, T/C: 107%
[34]
  viability, T/C: 95.7%
[35]
  viability, T/C: 66.7%

## Cn1nccc1Nc1nccc(-c2ccn(C(CO)c3ccc(Cl)c(F)c3)c(=O)c2)n1 (stereo unspecified) + CCN1CCN(Cc2ccc(Nc3ncc(F)c(-c4cc(F)c5nc(C)n(C(C)C)c5c4)n3)nc2)CC1
[1]
  IC50: > 10000 nM
[2]
  IC50: > 10000 nM
[3]
  IC50: > 10000 nM
[4]
  IC50: > 10000 nM
[5]
  IC50: > 10000 nM
[6]
  viability, T/C: 185%
[7]
  viability, T/C: 202%
[8]
  viability, T/C: 192%
[9]
  viability, T/C: 227%
[10]
  viability, T/C: 198%
[11]
  viability, T/C: 135%
[12]
  viability, T/C: 143%
[13]
  viability, T/C: 191%
[14]
  viability, T/C: 216%
[15]
  viability, T/C: 211%
[16]
  viability, T/C: 169%
[17]
  viability, T/C: 133%
[18]
  viability, T/C: 154%
[19]
  viability, T/C: 190%
[20]
  viability, T/C: 181%
[21]
  viability, T/C: 204%
[22]
  viability, T/C: 185%
[23]
  viability, T/C: 132%
[24]
  viability, T/C: 156%
[25]
  viability, T/C: 178%
[26]
  viability, T/C: 210%
[27]
  viability, T/C: 204%
[28]
  viability, T/C: 174%
[29]
  viability, T/C: 106%
[30]
  viability, T/C: 161%
[31]
  viability, T/C: 211%
[32]
  viability, T/C: 224%
[33]
  viability, T/C: 215%
[34]
  viability, T/C: 171%
[35]
  viability, T/C: 86.3%

## CC(C)NCC(C(=O)N1CCN(c2ncnc3c2C(C)CC3O)CC1)c1ccc(Cl)cc1 (stereo unspecified)
Compound 1 µM
  viability, T/C: 30.2% [middle of 13 runs]
Compound 3.16 µM
  viability, T/C: 23.3% [middle of 13 runs]
Compound 10 µM
  viability, T/C: 14.6% [middle of 13 runs]

## CC(=O)c1c(C)c2cnc(Nc3ccc(N4CCNCC4)cn3)nc2n(C2CCCC2)c1=O
Compound 0.000949 µM
  viability, T/C: 86.5% and 84.4%
Compound 0.003 µM
  viability, T/C: 81.2% and 104%
Compound 0.00949 µM
  viability, T/C: 109% and 90.3%
Compound 0.03 µM
  viability, T/C: 133% and 91.8%
Compound 0.0949 µM
  viability, T/C: 112% and 101%
Compound 0.3 µM
  viability, T/C: 165% and 106%
Curve of compound
  IC50: > 300 nM

## CCN1CCN(Cc2ccc(Nc3ncc(F)c(-c4cc(F)c5nc(C)n(C(C)C)c5c4)n3)nc2)CC1
Compound alone, run of 05/18/2021
  IC50: > 1000 nM
